The record followed here is patent US8865672B2, “Prevention of tissue ischemia and related methods” (The United States of America, as represented by the …, priority 2006, dated 2014).

One data set deals with CD47. The data set can be described thus: Western analysis of CD47 in human aortic VSMC. Type of data set: cell-based. As to conditions: 48 hours. As for the experimental part:
Human aortic VSMC were plated onto 12-well culture plates (Nunc) at a density of 5×10^4 cells/well in SM-GM+2% FCS and cultured until approximately 90% confluent. A translation-blocking antisense morpholino oligonucleotide complementary to human and murine CD47 ([…]; SEQ ID NO: 21) and a five-base mismatch control (CGTgACAGcCAcGACCgACTGCgCA; SEQ ID NO: 22) were obtained from GeneTools (Philomath, Oreg.). Cultured cells were treated as per the manufacturer's recommendation with morpholinos (10 μM) and utilized within 48 hours of treatment.
Murine VSMC were plated in 12-well culture plates (5×10^4 cells/well) (Nunc) in growth medium and weaned over 48 h of additives and serum and then treated in basic medium with 0.1% BSA. Cells were washed twice with PBS and lysed in 1×SDS sample buffer containing 10 μg/mL leupeptin, 10 μg/mL aprotinin, 1 mM Na3VO4, and 40 mM NaF. Lysates prepared in the SDS sample buffer described above were electrophoresed in 4-12% BisTris NuPAGE gels and transferred to PVDF membranes prior to immunoblotting using a mouse monoclonal CD47 antibody, clone B6H12 (Lab Visions, Fremont, Calif.).

Data set [1] has as its system human platelets. Description: cGMP in human platelets. In kind it is cell-based. As for the experimental part:
Fresh human platelets at 2×10^5 platelets/μl in Tyrode's buffer or PRP were pre-incubated with the indicated agents for 15 minutes and then challenged with DEA/NO for the indicated time interval at room temperature and total cGMP determined via immunoassay (Amersham, GE Healthcare, Buckinghamshire, UK). Murine WT and TSP1-null platelets were treated with DEA/NO and cGMP flux measured.

The test system of data set [2] is human platelets. The data set can be described thus: Thrombin-induced human platelet aggregation. In kind it is cell-based. To be noted: for NO delay of thrombin-induced platelet aggregation: DEA/NO 10 μM. The method in brief: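 Washed human platelets in Tyrode's buffer pH 7.4 (2×10^5/μl) are stirred at 1200 rpm and 37 °C, and optical aggregation is followed for 5 min; under static conditions, A400 is tracked for 5 min instead. TSP1 agents or 1 μM peptide C6d are pre-incubated for 15 min before thrombin ± DEA/NO (10 μM).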

In a further data set the test system is HAVSMC. The data set can be described thus: Actin cytoskeleton staining (F-actin) in HAVSMC. Type of data set: cell-based, human. As for the experimental part:
VSMC were grown on glass well slides (Lab-Tek, Nunc) under standard growth conditions. Cells were incubated at 37° C. for 1 hour in serum and additive deficient growth medium and the indicated treatment agents, after which the media was removed and the cells were fixed in 4% paraformaldehyde in PBS (pH 7.4, Fisher Scientific) for 15 minutes at room temperature. After washing with DPBS, cells were permeabilized for 5 minutes in 0.1% Triton X-100 in PBS and then blocked in M199E/2% BSA for 30 min at room temperature. Cells were stained for F-actin with 1 unit/200 μl medium/1% BSA of Oregon Green 488 phalloidin (Molecular Probes). Slides were imaged using an Olympus IX70 microscope and photographed at constant exposure and gain. In other experiments VSMC were plated on 24-well culture plates (Nunc, Denmark) in smooth muscle growth medium (50,000 cells/well) and weaned from serum and additives over 24 hours. Cell treatment was performed with the indicated agents in plain medium with 0.1% BSA for 5 minutes. Wells were processed as described above. Following staining with phalloidin cells were incubated in methanol for 30 minutes, samples aliquoted to 96-well black plates and fluorescence read at 520 nm (excitation 495 nm). Data was normalized to total protein. Results represent the mean±SD of at least three separate experiments.

For “CGTCACAGGCAGGACCCACTGCCCA (all phosphorodiamidate morpholino (PMO)) [CD47 morpholino]”, the “CD47 protein (Western)” value in the data set on CD47 is on record as “dose dependent decrease in CD47 protein”.
Consider “TSP1: thrombospondin-1 prepared from human platelets”, for which the “NO-stimulated cGMP flux in platelets” value in the data set on human platelets [1] (PRP, TSP1 2.2 nM) is listed as “continued to block”. In addition, in the data set with human platelets [1] (washed human platelets in Tyrode's buffer), the “NO stimulated cGMP in platelets” value is listed as “decreased”. Moreover, the “platelet aggregation at high shear in the presence of NO” value in the data set on human platelets [2] (GGTI-298 preincubation) was “maintained its ability to accelerate platelet aggregation”. For the same substance, the “lowest concentration tested, sufficient to accelerate platelet aggregation in the presence of NO” value in the data set with human platelets [2] (high shear) was found to be 0.022 nM. Also, the “NO delay of thrombin-induced platelet aggregation” value was “reversed in a dose-dependent manner” in the data set on human platelets [2] (high shear, thrombin 0.2 U/ml) and “completely abrogated” with human platelets [2] (static / low shear conditions). Besides, the NO-induced actin disassembly entry with HAVSMC (DEA/NO 10 μM) is reported as “completely prevented actin disassembly by NO”. Further, in the data set on HAVSMC (S1P 100 nM, DEA/NO 10 μM), the “disassembly of S1P-induced F actin by NO” value is “attenuated”. In addition, in the data set with HAVSMC (agent alone (TSP1 2.2 nM, S1P 100 nM)), the F-actin levels entry is given as “slightly increased F-actin levels”.
